The source of these data is patent US11324714B2 (priority 2008, dated 2022).

Molecules are shown by their SMILES.

The data set has as its system advanced lymphomas. Description: Phase II multi-center trial in patients with advanced lymphomas. The class given is in vivo, human. The protocol:
A Phase II multi-center trial of SGLU-1 (darinaparsin) was conducted in patients diagnosed with advanced lymphomas. Eligible patients required therapy and received at least 1 prior therapy. Patients received 300 mg/m^2 of darinaparsin intravenously for 5 consecutive days every 28 days (1 cycle) and were then evaluated for efficacy and safety by standard criteria. Treatment continued until toxicity or progression. To date the study has accrued 22 patients (15 non Hodgkin's [NHL], 7 Hodgkin's); 12 are male and 10 are female. Median age at baseline was 60.5 years (range: 28-80), ECOG performance status was ≤2, and median number of prior therapies was 3 (range: 1-6). Thirteen subjects have received at least 2 cycles of SGLU-1 and are evaluable for efficacy. Of these, 1 (diagnosed with peripheral T-cell lymphoma (PTCL)) has achieved a complete response (CR), 3 (diagnosed with diffuse large B-cell, marginal zone, and Hodgkin's nodular sclerosis, respectively) have achieved partial responses (PRs), and 2 patients with NHL have achieved stable disease (SD). In the patient with marginal zone lymphoma who achieved PR, no evidence for macroscopic disease was present, but microscopic disease was detectable on random biopsies from normal appearing gastric mucosa. All responders had been heavily pretreated (PTCL: CHOP (cyclophosphamide, doxorubicin, vincristine, and prednisolone)×6, ICE (ifosfamide, carboplatin and etoposide)×1, and EPOCH (etoposide, vincristine, doxorubicin, cyclophosphamide, and prednisone)×2; diffuse B-cell: RCHOP (rituximab, cyclophosphamide, doxorubicin, vincristine, and prednisolone)×5, RICE (rituximab, ifosfamide, carboplatin and etoposide)×3, and radiation therapy; marginal zone: rituximab×8, RCVP (rituximab, cyclophosphamide, vincristine and prednisolone)×1, and gemcitabine×1; and Hodgkin's: ICE×1, CBV (cyclophosphamide, carmustine and etoposide)×1, gemcitabine+MDX-060 (Medarex)×6). A total of 49 cycles of SGLU-1 have been administered. The only Grade 3 adverse event (AE) considered drug-related was wheezing. A total of 12 subjects have reported 37 serious adverse events (SAEs) while on study. Of these, only 2 had SAEs that were considered drug-related (neutropenic fever, fall). […] Initial responses (1 CR, 3 PRs, 2 SDs) have been observed among 13 evaluable patients.

Where [1] appears, read: 300 mg/m^2 i.v. 5 consecutive days every 28 days, of 13 evaluable subjects.

With `C[As](C)SC[C@H](NC(=O)CC[C@H](N)C(=O)O)C(=O)NCC(=O)O` [SGLU-1, S-(dimethylarsino) glutathione], under setting [1], the “complete response (CR)” value stood at 1 patients and the “partial responses (PRs)” value stood at 3 patients. Further, for the setting “22 patients, 49 cycles”, the “Grade 3 adverse event (AE) considered drug-related” value is “wheezing”, the “serious adverse events (SAEs) reported” value is recorded as 37 and the “subjects reporting serious adverse events (SAEs)” value was 12 subjects. Moreover, the tolerability result (heavily pretreated patients with advanced lymphoma) is given as “very well tolerated”. The “subjects with SAEs considered drug-related” value (neutropenic fever, fall) is listed as 2 subjects.
